Consider 19 compounds from ChEMBL document CHEMBL4251746, “Design of Conformationally Constrained Acyl Sulfonamide Isosteres: Identification of N-([1,2,4]Triazolo[4,3- a]pyridin-3-yl)methane-sulfonamides as Potent and Selective hNaV1.7 Inhibitors for the Treatment of Pain” (J Med Chem, 2018).

Broadly, the pKa is the negative logarithm of the acid dissociation constant. High values mean a weaker acid or stronger base, low ones a stronger acid or weaker base. One may read the logD as lipophilicity at a set pH, counting ionised and neutral species. The Vd is the apparent volume that relates the amount in the body to the concentration in plasma or blood. A low value points to little distribution into tissue. A word on the solubility (kinetic): it is the concentration staying in solution when a stock, usually in DMSO, is diluted into the medium. Broadly, the Papp B→A is the apparent permeability from the basolateral to the apical side of a cell layer. By Papp A→B is commonly meant the apparent permeability from the apical to the basolateral side of a cell layer. By Kp is commonly meant the ratio of the level in a tissue or fluid to that in plasma or blood. By Tmax is commonly meant the time at which the peak concentration occurs.

Data set [1] in a line: Dissociation constant, pKa of the compound by UV-metric method. The format is physicochemical.
Data set [2] is described as follows: physchem. The settings on record: 1-octanol/PBS, pH 7.4.
The nature of data set [3]: in vivo. The settings on record: FVB hSCN9a Tg, mouse, plasma, po, 30 mg/kg.
A short description of data set [4]: in vivo. The settings on record: CF1, mouse, iv, 0.5 mg/kg.
Data set [5] in a line: physchem. Particulars: PBS, pH 7.4.
The nature of data set [6]: in vivo. The settings on record: Sprague-Dawley, rat, iv, 1 mg/kg.
Data set [7] can be described thus: in vitro. The settings on record: dog, MDCK-MDR1.
A short description of data set [8]: in vitro. The settings on record: dog, MDCK-MDR1. This is another data set of the same source.
A short description of data set [9]: in vivo. The settings on record: brain/plasma.
Data set [10] can be described thus: in vivo. Particulars: beagle, dog, iv, 0.5 mg/kg.
Data set [11] is described as follows: in vivo. Particulars: FVB hSCN9a Tg, mouse, po, 30 mg/kg.
For data set [12] the following is noted: octanol/water, pH 7.4.

SMILES strings stand for the structures. Converted amounts (≈) assume the structure as drawn. Bounds are passed on as bounds.

On to `CS(=O)(=O)Nc1nnc2cc(OCC34CC5CC(CC(C5)C3)C4)c(Cl)cn12`, for which, in data set [1], the pKa was 5.6. The logD in data set [2] was 2.7.
For `CS(=O)(=O)Nc1nnc2cc(OCC34CC5CC(CC(C5)C3)C4)c(Br)cn12`, the logD in [2] stood at 2.8.
In data set [1], `CS(=O)(=O)Nc1noc2cc(OCC34CC5CC(CC(C5)C3)C4)c(Cl)cc12` had a pKa of 4.7. In addition, the logD in data set [2] amounted to 3.5.
For `CS(=O)(=O)Nc1nnc2cc(OCC3C4CC5CC(C4)CC3C5)c(C3CC3)cn12` (configuration not stated), the logD in data set [2] was determined as 2.3.
Still for that read-out and setting: as for `CS(=O)(=O)Nc1noc2cc(OCc3ccc(Cl)c(Cl)c3)c(Cl)cc12`, the figure is 1.8.
As for `CS(=O)(=O)Nc1nnc2cc(COc3ccc(Cl)c(Cl)c3)c(C3CC3)cn12`, in data set [2], the log distribution coefficient (logD) turned out to be 1.5.
Same read-out and setting: as for `CS(=O)(=O)Nc1nnc2cc(OCC34CC5CC(CC(C5)C3)C4)c(C3CCC3)cn12`, the figure is 3.9; as for `CCc1cn2c(NS(C)(=O)=O)nnc2cc1OCC12CC3CC(CC(C3)C1)C2`, 3.1.
Consider `CNS(=O)(=O)Nc1nnc2cc(OCCC34CC5CC(CC(C5)C3)C4)c(C3CC3)cn12`, for which, in data set [2], the logD is 3.7.
`O=S(=O)(Nc1nnc2cc(OCC34CC5CC(CC(C5)C3)C4)c(C3CC3)cn12)C(F)F` gave a logD in data set [2] of 3.1.
In the case of `O=S(=O)(Nc1nnc2cc(OCC34CC5CC(CC(C5)C3)C4)c(C3CC3)cn12)C1CCC1`, the logD in data set [2] came out at 4.7.
In [2], `CC(C)c1cn2c(NS(C)(=O)=O)nnc2cc1OCC12CC3CC(CC(C3)C1)C2` displayed a logD of 2.9.
`CS(=O)(=O)Nc1nnc2cc(COc3cc(Cl)cc(Cl)c3)c(C3CC3)cn12` registered a concentration at 3 h in data set [3] of 18.8 µM. In data set [2], this compound returned a logD of 1.9. The Vd was found to be 0.2 L/kg in data set [4] and 0.6 L/kg in [6]. The kinetic solubility at 24 h, 200 µM in [5] was 17 µM (≈ 7.26 µg/mL). This compound also gave a Papp B→A at 10 µM in data set [7] of 15 ×10⁻⁶ cm/s. Moreover, the Papp A→B at 10 µM in [8] turned out to be 4 ×10⁻⁶ cm/s. Also, in data set [9], the Kp is less than 0.004.
Compound `CS(=O)(=O)Nc1nnc2cc(OCC34CC5CC(CC(C5)C3)C4)c(C3CC3)cn12` yielded a concentration at 3 h in data set [3] of 46.2 µM. This compound also registered a logD in data set [2] of 3.5. Further, the volume of distribution (Vd) was determined as 0.4 L/kg in data set [10] and 0.6 L/kg in data set [6]. In addition, the kinetic solubility at 24 h, 200 µM in data set [5] is 32 µM (≈ 13.3 µg/mL). Moreover, the Papp B→A at 10 µM in data set [7] worked out at 3.2 ×10⁻⁶ cm/s. In [8], this compound had a Papp A→B at 10 µM of 3.2 ×10⁻⁶ cm/s. Further, in [9], the Kp is greater than 0.17. Also, in data set [11], the Tmax at 3 h amounted to 2 h.
With `CS(=O)(=O)NC(=O)c1cc(Cl)c(OCC23CC4CC(CC(C4)C2)C3)cc1F`, the pKa in data set [1] was determined as 3.8. This compound displayed a log distribution coefficient (logD) in data set [12] of 2.4.
Compound `CS(=O)(=O)Nc1noc2cc(COc3ccc(Cl)c(Cl)c3)c(C3CC3)cc12` displayed a logD in data set [2] of 2.4.
For the compound `CS(=O)(=O)Nc1noc2cc(COc3ccc(Cl)c(Cl)c3)c(Cl)cc12`, the logD in data set [2] amounted to 2.5.
Turning to `CNS(=O)(=O)Nc1nnc2cc(OCC34CC5CC(CC(C5)C3)C4)c(C3CC3)cn12`, in data set [2], the logD was found to be 3.2.
Compound `CS(=O)(=O)Nc1nnc2cc(OCC34CC5CC(CC(C5)C3)C4)ccn12` showed a logD in data set [2] of 2.2.
